Like-named read-outs stand apart in the source and are kept apart here.
Assays:
Assay type in all cases: cell-based
[1] = test system: IgG production by human lymphocytes; assay: Inhibition of IgG production by human lymphocytes in vitro (SAC activation, ELISA); details: 8 days, vehicle control 0.78 ± 0.09
Description: (§1) General Test Description Humoral immunity comprises one of the two major arms of the immune system and generally is beneficial. However, a number of disease states are characterized by a hyperactive immune system responding to self tissue antigens. […] In these diseases it would be important to suppress the humoral immune system.
(§2) In the following studies we used established methods to examine the effect of Vitamin D derivatives on the in vitro production of immunoglobulin (Ig) by human peripheral blood leukocytes (PBL) following polyclonal activation. Immunoglobulin was induced from PBL by co-culturing the PBL with the polyclonal B cell activator Staphylococcus aureus strain Cowan I (SAC) for a period of 8 days. The quantity of Ig produced in the culture supernatants was determined by using an enzyme linked immunosorbent assay (ELISA). The effect of Vitamin D derivatives was determined by comparing the amount of antibody produced in cultures containing Vitamin D derivatives to those cultures containing an appropriate concentration of vehicle (ethanol).
(§3) Solutions of vitamin D derivatives. Stock solutions of vitamin D derivatives were prepared as described previously for the murine CTL experiments.
(§4) INDUCTION OF HUMAN IG SECRETION Human peripheral blood mononuclear leukocytes were prepared from one day old buffy coat preparations obtained from the American Red Cross (Lansing, MI). […] Twenty five ml of this preparation were overlayed onto 25 ml of Ficoll-Paque contained in a 50 ml polypropylene centrifuge tube. After centrifugation at 400×g at 15° C. for 40 min, the cells at the interface of the medium and Ficoll were removed and washed 3 times in 50 ml RPMI medium and centrifuged at 300×g for 10 minutes. After the final centrifugation,the cell pellet was suspended in RPMI medium containing 20% fetal bovine serum (FBS) and 80 μg/ml gentamicin. The number of viable cells was determined by trypan blue exclusion and were then suspended to 2.5×10^6 viable cells per ml in RPMI containing 20% FBS and gentamicin. Human PBL were induced to secrete Ig as follows. One hundred microliters of the PBL suspension and an additional 100 μl of a 1:20,000 (v/v) preparation of SAC suspended in RPMI containing 1% FBS were added to each well of a 96-well microtiter plate. Selected wells were also set up without the addition of SAC to serve as negative controls (spontaneous Ig secretion). Each well then received 20 μl of either the appropriate dilution of Vitamin D derivative in RPMI with 1% ethanol or RPMI with 1% ethanol (vehicle control). The vitamin D derivatives were tested at final concentrations of 10^-5, 10^-6, 10^-7, 10^-8, 10^-9, and 10^-10 M and in all cases the vehicle (ethanol) concentration was 0.1%. All treatments were performed in triplicate. […] The samples were then either assayed immediately or stored at -20° C. until assayed by the ELISA technique described below.
(§5) QUANTITATION OF SECRETED IG (ELISA ASSAY) ELISA plates were prepared for quantitating human IgG and IgM levels in culture supernatants as follows. Affinity purified sheep anti-human IgG and goat anti-human IgM (Cappel, Cochranville, PA) were diluted 1:250 and 1:400 respectively, in carbonate coating buffer (0.05M sodium bicarbonate, 0.05M sodium carbonate, 0.15M sodium chloride). One hundred and fifty microliters of the antibody preparation were added to each well of a 96 well ELISA plate (EIA, Costar). The plates were sealed and incubated overnight at 4° C. and on the following day were washed 3 times with distilled water. Each well then received 350 μl of Dulbecco's PBS containing 1 mg/ml bovine serum albumin (BSA) and 0.5 mg/ml sodium azide. The plates were allowed to incubate for 1 hour at 37° C. and then washed 3 times with Dulbecco's PBS containing 0.5% stock Tween 20 (PBS-Tween) followed by 2 washes with distilled water. The plates were air dried and stored desiccated under a vacuum at 4° C. until use.

[2] = test system: IgM production by human lymphocytes; assay: Inhibition of IgM production by human lymphocytes in vitro (SAC activation, ELISA); details: 8 days, vehicle control 2.49 ± 0.17
Description: as §1, §2, §3, §4, §5

[3] = test system: human cytotoxic T-lymphocyte responses; assay: Inhibition of human CTL responses (mixed leukocyte-tumor cultures, HT-144 melanoma, ^51 Cr release); details: donor I, 0.01% ethanol, effector to target 6:1; for inhibition at 1 µM / inhibition at 0.1 µM / inhibition at 10 µM: Homo sapiens, T-lymphocyte
Procedure: Human cells for the tests described below were taken from four donors designated I, II, III, and IV in the tables below.
Stock solutions of Vitamin D derivatives were prepared as they were prepared above in the murine tests.
Human cytotoxic T-lymphocytes were generated in mixed leukocyte-tumor cultures by known methods. Specifically, blood from normal volunteer donors was drawn into heparinized syringes, diluted 1:1 with calcium-magnesium free Hanks' balanced salt solution (Ca-Mg free HBSS), and layered over lymphocyte separation medium (Litton Bionetics, Kensington, MD). After centrifugation at 500xg for 20-30 min at room temperature, peripheral blood mononuclear cells were harvested from the interface. The peripheral blood mononuclear leukocytes were centrifuged and resuspended in Ca-Mg free HBSS and were subsequently separated from platelets by centrifugation at 500xg through a solution of 20% sucrose and 1% human AB serum in Ca-Mg free HBSS. The cells were washed once and finally resuspended in tissue culture medium. […] Cells to be used as stimulator cells in mixed leukocyte-tumor cultures were irradiated with 10,000 rads of gamma irradiation to preclude proliferation in culture. Mixed leukocyte-tumor cell cultures were established in 16 mm tissue culture wells at a final volume of 1.5 ml per well containing 2×10^6 peripheral blood mononuclear leukocytes and 5×10^4 irradiation-inactivated stimulator cells. In order to prevent the generation of nonspecific cytotoxic cells in these cultures, hydrocortisone sodium succinate was added to each culture at a final concentration of 1×10^-5 M. Mixed leukocyte-tumor cultures were incubated for 6 days in a humidified atmosphere of 5% CO2 in air.
Labelled target cells were washed free of unbound isotope by 3 serial washes in tissue culture medium and were finally resuspended at a concentration of 5×10^4 cells per ml.
Assays of human cytotoxic T-lymphocytes were done by known methods. Specifically, one-tenth ml aliquots of ^51 Cr-labelled target cell suspension were added to "half area" microtest plates and were incubated at 37° C. for 18 hours in a humidified atmosphere of 5% CO2 in air to permit the cells to adhere and spread on the floor of each well. Culture medium was then aspirated from each well and was replaced with 0.1 ml of tissue culture medium containing cells harvested from mixed leukocyte-tumor cultures which had been processed as described for murine mixed leukocute cultures, above. Control wells for measurement of spontaneous ^51 Cr release received medium without effector cells and wells for measurement of maximal releasable ^51 Cr received 0.1 ml of 2% sodium dodecyl sulfate in distilled water. After overnight incubation at 37° in a humidified atmosphere of 5% CO2 in air, 0.05 ml of cell-free supernatant was withdrawn from each well and the amount of released ^51 Cr was quantitated using a gamma spectrometer. The percentage of specific ^51 Cr release (CTL activity) and the percent inhibition of CTL activity were calculated with the same formulas used above for the murine CTL assay.
Tests conducted on human cytotoxic T-lymphocyte responses are reported as the mean±standard error of the mean from triplicate ^51 Cr release determinations on pooled cells from duplicate control or test cultures.

Which results are given for `C=C1/C(=C\C=C2/CCC[C@]3(C)[C@@H]([C@H](C)CCCC(C)(C)O)CC[C@@H]23)C[C@@H](O)C[C@@H]1F` [1α-F--25-OH--D3, 1α-Fluoro-25-hydroxycholecalciferol]?
IgG μg per culture (x ± S.E.M.) ([1]; 1 × 10^-6 molar): undetectable; IgG μg per culture (x ± S.E.M.) ([1]; 1 × 10^-7 molar): 0.08 ± 0.05 μg per culture; IgG μg per culture (x ± S.E.M.) ([1]; 1 × 10^-8 molar): 0.14 ± 0.05 μg per culture; IgG μg per culture (x ± S.E.M.) ([1]; 1 × 10^-9 molar): 0.18 ± 0.001 μg per culture; IgG μg per culture (x ± S.E.M.) ([1]; 1 × 10^-10 molar): 0.45 ± 0.11 μg per culture; IgM μg per culture (x ± S.E.M.) ([2]; 1 × 10^-6 molar): undetectable; IgM μg per culture (x ± S.E.M.) ([2]; 1 × 10^-7 molar): 0.38 ± 0.30 μg per culture; IgM μg per culture (x ± S.E.M.) ([2]; 1 × 10^-8 molar): 1.83 ± 0.29 μg per culture; IgM μg per culture (x ± S.E.M.) ([2]; 1 × 10^-9 molar): 3.10 ± 0.10 μg per culture; IgM μg per culture (x ± S.E.M.) ([2]; 1 × 10^-10 molar): 4.48 ± 0.75 μg per culture

How did the “IgG μg per culture (x ± S.E.M.)” value ([1]; 1 × 10^-6 molar) turn out when `C=C1/C(=C/C=C2\CCC[C@]3(C)[C@@H]([C@H](C)CCCC(C)(C)O)CC[C@@H]23)C[C@@H](O)C[C@@H]1O` [5,6-trans-1α,25-(OH)2 --D3, 1α,25-Dihydroxy-5,6-trans-cholecalciferol] was run?
The value was “undetectable”.

And the “IgG μg per culture (x ± S.E.M.)” value ([1]; 1 × 10^-7 molar)?
The value was 0.01 ± 0.001 μg per culture.

What about the “IgG μg per culture (x ± S.E.M.)” value ([1]; 1 × 10^-8 molar) of the same compound?
The value was 0.21 ± 0.12 μg per culture.

What about the “IgG μg per culture (x ± S.E.M.)” value ([1]; 1 × 10^-9 molar) of the same compound?
The value was 0.29 ± 0.05 μg per culture.

And the “IgG μg per culture (x ± S.E.M.)” value ([1]; 1 × 10^-10 molar)?
Its value is 0.55 ± 0.16 μg per culture.

What about the “IgM μg per culture (x ± S.E.M.)” value ([2]; 1 × 10^-6 molar) of the same compound?
Its value is “undetectable”.

And the “IgM μg per culture (x ± S.E.M.)” value ([2]; 1 × 10^-7 molar)?
Its value is 0.04 ± 0.01 μg per culture.

And the “IgM μg per culture (x ± S.E.M.)” value ([2]; 1 × 10^-8 molar)?
The value was 0.50 ± 0.21 μg per culture.

And the “IgM μg per culture (x ± S.E.M.)” value ([2]; 1 × 10^-9 molar)?
The value was 2.36 ± 0.27 μg per culture.

What about the “IgM μg per culture (x ± S.E.M.)” value ([2]; 1 × 10^-10 molar) of the same compound?
The value was 2.79 ± 0.18 μg per culture.

And the inhibition at 1 µM ([3]; read-out: Inhibition of CTL activity (%), Test 1, 1 × 10^-6 molar)?
The inhibition at 1 µM was 62%.

And the inhibition at 0.1 µM ([3]; read-out: Inhibition of CTL activity (%), Test 1, 1 × 10^-7 molar)?
Its inhibition at 0.1 µM is 62%.

And the inhibition at 10 µM ([3]; read-out: Inhibition of CTL activity (%), Test 2, 1 × 10^-5 molar)?
Its inhibition at 10 µM is 60%.

What about the inhibition at 1 µM ([3]; read-out: Inhibition of CTL activity (%), Test 2, 1 × 10^-6 molar) of the same compound?
The inhibition at 1 µM was 74%.

What about the “CTL activity (% specific ^51 Cr release)” value ([3]; Test 1, 1 × 10^-6 molar) of the same compound?
The value was 20 ± 2 % specific ^51 Cr release.

What about the “CTL activity (% specific ^51 Cr release)” value ([3]; Test 1, 1 × 10^-7 molar) of the same compound?
The value was 20 ± 2 % specific ^51 Cr release.

And the “CTL activity (% specific ^51 Cr release)” value ([3]; Test 2, 1 × 10^-5 molar)?
The value was 17 ± 3 % specific ^51 Cr release.

And the “CTL activity (% specific ^51 Cr release)” value ([3]; Test 2, 1 × 10^-6 molar)?
The value was 11 ± 2 % specific ^51 Cr release.

Which results are given for `C=C1/C(=C\C=C2/CCC[C@]3(C)[C@@H]([C@H](C)CCC(F)(F)C(C)(C)O)CC[C@@H]23)C[C@@H](O)C[C@@H]1O` [24,24-(F)2 --1α,25-(OH)2 --D3, 1α,25-Dihydroxy-24,24-difluorocholecalciferol]?
IgG μg per culture (x ± S.E.M.) ([1]; 1 × 10^-6 molar): undetectable; IgG μg per culture (x ± S.E.M.) ([1]; 1 × 10^-7 molar): undetectable; IgG μg per culture (x ± S.E.M.) ([1]; 1 × 10^-8 molar): 0.01 ± 0.003 μg per culture; IgG μg per culture (x ± S.E.M.) ([1]; 1 × 10^-9 molar): 0.02 ± 0.02 μg per culture; IgG μg per culture (x ± S.E.M.) ([1]; 1 × 10^-10 molar): 0.11 ± 0.03 μg per culture; IgM μg per culture (x ± S.E.M.) ([2]; 1 × 10^-6 molar): undetectable; IgM μg per culture (x ± S.E.M.) ([2]; 1 × 10^-7 molar): undetectable; IgM μg per culture (x ± S.E.M.) ([2]; 1 × 10^-8 molar): undetectable; IgM μg per culture (x ± S.E.M.) ([2]; 1 × 10^-9 molar): undetectable; IgM μg per culture (x ± S.E.M.) ([2]; 1 × 10^-10 molar): 0.50 ± 0.12 μg per culture; inhibition at 1 µM ([3]; Test 1, 1 × 10^-6 molar, read-out: Inhibition of CTL activity (%)): 71%; inhibition at 0.1 µM ([3]; Test 1, 1 × 10^-7 molar, read-out: Inhibition of CTL activity (%)): 81%; inhibition at 10 µM ([3]; Test 2, 1 × 10^-5 molar, read-out: Inhibition of CTL activity (%)): 83%; inhibition at 1 µM ([3]; Test 2, 1 × 10^-6 molar, read-out: Inhibition of CTL activity (%)): 91%; CTL activity (% specific ^51 Cr release) ([3]; Test 1, 1 × 10^-6 molar): 15 ± 1 % specific ^51 Cr release; CTL activity (% specific ^51 Cr release) ([3]; Test 1, 1 × 10^-7 molar): 10 ± 1 % specific ^51 Cr release; CTL activity (% specific ^51 Cr release) ([3]; Test 2, 1 × 10^-5 molar): 9 ± 2 % specific ^51 Cr release; CTL activity (% specific ^51 Cr release) ([3]; Test 2, 1 × 10^-6 molar): 5 ± 2 % specific ^51 Cr release

Source: US4749710A, “Immunosuppressive agents” (priority 1985, dated 1988)
